Data taken from PubChem BioAssay (NCI).
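Method: 48-hour compound exposure of cells in 96-well plates, five concentrations, linear interpolation of endpoints. At the TGI there is no net growth.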

Legend:
Assay in all cases: inhibition of tumour cell growth, NCI panel, 48 h
[1] = tested on: PC-3 prostate
[2] = tested on: BT-549 breast
[3] = tested on: K-562 leukemia
[4] = tested on: T-47D breast
[5] = tested on: HCC-2998 colon
[6] = tested on: SR leukemia
[7] = tested on: IGROV1 ovarian
[8] = tested on: RXF 393 renal

SMILES | TGI [1] [µM] | TGI [2] [µM] | TGI [3] [µM] | TGI [4] [µM] | TGI [5] [µM] | TGI [6] [µM] | TGI [7] [µM] | TGI [8] [µM]
CC(C)(CCC(C)(C)N1OC1c1ccccc1)N1OC1c1ccccc1 (centres undefined) | > 100 | > 100 | 37.7 | > 100 | > 100 | 40.3 |  | 
O=c1[nH]c2nc3ccccc3c(=O)n2/c1=C/c1ccco1 | > 100 | > 100 | > 100 | > 100 | > 100 | > 100 | > 100 | 
CCOC(=O)Cn1nnc2ccc(Nc3nc4ccccc4nc3-c3ccccc3)cc21 | > 100 | > 100 | > 100 | > 100 | 66.4 | > 100 | > 100 | > 100
CC(=O)O[C@H]1CC[C@@]2(C)C(=CC[C@@H]3[C@@H]2CC[C@]2(C)c4nc(Cl)ccc4C[C@@H]32)C1 | > 100 | > 100 | > 100 | > 100 | > 100 | > 100 | > 100 | > 100
c1ccc(CC2COC(c3cccs3)=N2)cc1 (centres undefined) | > 100 | > 100 | > 100 | > 100 | > 100 | > 100 | > 100 | > 100
Nc1ccc(Nc2cc(=O)[nH]c(=O)[nH]2)cc1Cl | > 100 | > 100 | > 100 | > 100 | > 100 | > 100 |  | 
O=c1[nH]nc(-c2ccccc2)n1O | > 100 |  | > 100 | > 100 | > 100 | > 100 | > 100 | > 100
Nc1nc2c(C(=O)O)c3ccc([N+](=O)[O-])cc3c(=O)n2c2ccccc12 | 74.9 | 95.9 | > 100 | 68.9 | > 100 | > 100 | 86.6 | 45.6
CN=C(Nc1cccc(C(F)(F)F)c1)SCc1ccc(N=C=S)cc1 | 29.4 |  | > 100 | 29.9 | 29 | 40.4 | 32.8 | 29.3
CCc1ccc2c(c1)N(CC(C)CN(C)C)c1ccccc1S2 (centres undefined) | 17.1 | 26.5 | 3.5 | 10.7 |  | 11.4 | 15 | 10.3
CC(=O)OCC1OC(OCCCOP(=S)(OCCC#N)OCC2OC(n3ccc(N)nc3=O)C(OC(=O)c3ccccc3)C2OC(=O)c2ccccc2)C(OC(C)=O)C(OC(C)=O)C1OC(C)=O (centres undefined) | > 100 | > 100 | > 100 | > 100 | > 100 | > 100 | > 100 | > 100
CCN(CCN(CC)C(=O)Nc1ccccc1)C(=O)Nc1ccccc1 | > 100 | > 100 | > 100 | > 100 | > 100 | > 100 | > 100 | > 100
C=C1CC[C@@H](C)[C@](C)(CCc2ccoc2)C/C=C\C=C/1C(=O)O | > 100 | 49.1 | > 100 |  |  | 59.2 | > 100 | 90.8
